Values of other authors as cited in patent US20090312311A1, “COMBINATION OF ORGANIC COMPOUNDS” (priority 2006, published 2009).

Key:
cardiac hypertrophy = settings: transgenic mice that overexpress Hop; Kook et al. 2003
[1] = system: hypertrophy induced by infusion of isoproterenol

## CC(/C=C/C(=O)NO)=C\[C@@H](C)C(=O)c1ccc(N(C)C)cc1 [trichostatin A]
Cardiac hypertrophy
  effect on cardiac hypertrophy: prevents cardiac hypertrophy
[1]
  effect on hypertrophy: attenuates hypertrophy
